Experimental data as given in ChEMBL document CHEMBL1687711.
The source made the active and inactive calls. The rule behind the calls is not given here.

Columns and labels:
[1] = system: THP-1; experiment: Effect on TLR4 protein expression in human THP1 cells at 0.5 ug/ml after 6 hrs by Western blot analysis; format: functional, cell-based
[2] = system: THP-1; experiment: Effect on TLR4 protein expression in human THP1 cells co-incubated with Aspergillus fumigatus hyphae at 0.5 ug/ml after 6 hrs by Western blot analysis; format: functional, cell-based
[3] = system: THP-1; experiment: Effect on TLR4 mRNA expression in human THP1 cells at 0.5 ug/ml after 6 hrs by RT-PCR analysis; format: functional, cell-based
[4] = system: Aspergillus fumigatus; experiment: Antifungal activity against Aspergillus fumigatus AF4215 hyphae co-incubated with human monocytes assessed as hyphal damage at 0.1 ug/ml after 20 hrs by XTT assay; format: functional, organism-based
[5] = system: Aspergillus fumigatus; experiment: Antifungal activity against Aspergillus fumigatus AF4215 hyphae co-incubated with human THP1 cells assessed as hyphal damage at 0.1 ug/ml after 6 hrs by XTT assay; format: functional, organism-based; conditions: THP-1
[6] = system: THP-1; experiment: Increase in NF-kappaB-mediated TLR2 mRNA expression in human THP1 cells co-incubated with Aspergillus fumigatus hyphae at 0.5 ug/ml after 6 hrs by RT-PCR analysis; format: cell-based
[7] = system: THP-1; experiment: Increase in NF-kappaB-mediated TLR2 mRNA expression in human THP1 cells at 0.5 ug/ml after 6 hrs by RT-PCR analysis; format: cell-based
[8] = system: THP-1; experiment: Increase in NF-kappaB-mediated TNF-alpha mRNA expression in human THP1 cells co-incubated with Aspergillus fumigatus hyphae at 0.5 ug/ml after 6 hrs by RT-PCR analysis; format: cell-based
[9] = system: THP-1; experiment: Effect on TLR4 mRNA expression in human THP1 cells co-incubated with Aspergillus fumigatus hyphae at 0.5 ug/ml after 6 hrs by RT-PCR analysis; format: functional, cell-based
[10] = system: THP-1; experiment: Increase in NF-kappaB-mediated TLR2 protein expression in human THP1 cells co-incubated with Aspergillus fumigatus hyphae at 0.5 ug/ml after 6 hrs by Western blot analysis; format: cell-based
[11] = system: THP-1; experiment: Increase in NF-kappaB-mediated TNF-alpha mRNA expression in human THP1 cells at 0.5 ug/ml after 6 hrs by RT-PCR analysis; format: cell-based
[12] = system: Aspergillus fumigatus; experiment: Antifungal activity against Aspergillus fumigatus AF4215 hyphae assessed as hyphal damage at 0.1 ug/ml after 20 hrs by XTT assay; format: functional, organism-based
[13] = system: THP-1; experiment: Increase in NF-kappaB-mediated TLR2 protein expression in human THP1 cells at 0.5 ug/ml after 6 hrs by Western blot analysis; format: cell-based
[14] = system: Aspergillus fumigatus; experiment: Antifungal activity against Aspergillus fumigatus AF4215 hyphae co-incubated with monocytes assessed as hyphal damage at 0.1 ug/ml after 6 hrs by XTT assay; format: functional, organism-based

C[C@@H](c1ncncc1F)[C@](O)(Cn1cncn1)c1ccc(F)cc1F was tested, and the Activity [1] was “inactive”, the Activity [2] was “inactive” and the Activity [3] was “inactive”. The Activity [4] was “Active”, the Activity [5] was “Active” and the Activity [6] was “Active”. The Activity [7] was “Active”, the Activity [8] was “Active” and the Activity [9] was “inactive”. For the same compound, the Activity [10] was “Active”, the Activity [11] was “Active” and the Activity [12] was “Active”. For the same compound, the Activity [13] was “Active” and the Activity [14] was “Active”.
